{"source": "patent US20080103124A1", "about": "“Cefdinir-containing pharmaceutical composition” (ASTELLAS PHARMA INC., priority 2006, published 2008)", "origin": "cited, not measured here", "details": "human beings", "note": "Like-named read-outs stand apart in the source and are kept apart here."}
{"smiles": "C=CC1=C(C(=O)O)N2C(=O)[C@@H](NC(=O)/C(=N\\O)c3csc(N)n3)[C@H]2SC1", "note": "[cefdinir]", "values": [{"measurement": "absolute bioavailability", "setting": "following administration of a 300 mg capsule", "value": 21, "unit": "%"}, {"measurement": "absolute bioavailability", "setting": "following administration of an oral suspension of 250 mg/5 mL", "value": 25, "unit": "%"}]}
